Data from patent US5773423A (priority 1994, dated 1998).
“Also recorded” adds a separate entry of the source. Read-outs that look alike come from different tables or passages of the source.

Tests used:
[1] = tested on: locomotor activity in mice; assay: Locomotor activity in mice (open field, Digiscan activity monitor); assay type: in vivo, mouse (NIH Swiss)
[2] = tested on: forebrain ischemia in gerbils; assay: Forebrain ischemia in gerbils (bilateral carotid occlusion); assay type: in vivo, Mongolian gerbil
Protocol: Ischemia was effected by bilateral occlusion of the carotid arteries. Control gerbils were injected with saline (0.15 ml, i.p. for 10 days). During postischemic recovery, the rate of cerebral blood flow return to pre-ischemia level, neurological status, and survival were monitored. After 7 days, all surviving animals were perfused with formaldehyde for further studies of morphology and histochemistry.

[3] = tested on: cardiovascular parameters in rats; assay type: in vivo, rat
Protocol: Rats (each weighing 300-340 g) were lightly anesthetized using 1.5-2% halothane. They were monitored for heart rate with a tail sensor and blood pressure using the tail cuff method. Peripheral blood flow (scalp) was monitored using a Perimed laser Doppler blood flow apparatus, with a narrow diameter probe placed in contact with the shaved skin above the center of the cranium. A small amount of clear gel was applied to maintain uniform transmission of light. Body temperature was measured using a rectal probe. Respiratory rate was also recorded. Measurements were made at regular intervals: every 2 min for the first ten min period, and every five min thereafter, until 30 min, at which time a 30 min interval was used, until 90 min. […] Drugs were dissolved in a vehicle consisting of an 80:20 mixture of Alkamuls EL-620 and saline, pH 7.4. […] When administered alone, the agonist was given at the beginning of the monitoring period. When coadministered with an antagonist, the antagonist was given at the beginning of the monitoring period, and the agonist was given after 10 min.

[4] = tested on: injection-induced anxiety in mice; assay: Anxiolytic effect in C57BL/J mice (responses to handling); assay type: in vivo, mouse (C57BL/J); conditions: chronic, 100 μg/kg
[5] = tested on: NMDA-evoked seizures in mice; assay type: in vivo
[6] = tested on: pentamethylenetetrazole-induced convulsions in mice; assay type: in vivo
[7] = tested on: electroconvulsive shock in mice; assay type: in vivo
[8] = tested on: spontaneous seizures in gerbils; assay: Spontaneous seizures in gerbils on immersion in water maze; assay type: in vivo, gerbil
Protocol: During the studies of behavioural responses of gerbils to adenosine receptor stimulation, animals were exposed to the water maze model of spatial learning and memory. The control group (n=15) was injected with the vehicle given i.p. for 6 weeks prior to water maze tests. Twenty-four hours after the last injection, animals were exposed to the swim task. Immersion of animals in the swim tank whose water was kept at 32° C. produced an immediate, long-lasting (up to 2 min) seizure complex that was presented as myoclonic convulsions, followed by a period of rigidity and hind-limb extension.

[9] = tested on: spatial memory in gerbils; assay: Learning and memory in gerbils (Morris water maze) and open field; assay type: in vivo, gerbil; conditions: chronic
[10] = Basal or systemic blood pressure (chronic use, malignant hypotension); assay type: in vivo
phospholipase C = conditions: acute administration; 'it is known'; cited from earlier work
[11] = Rectal temperature of mice under light halothane anesthesia; conditions: 100 μg/kg acute (15 min) or chronic (24 h after last injection)
[12] = molecular target: T1, adenosine uptake sites in rat brain membranes (Rattus norvegicus, UniProt O54698); assay: Competition for [3H]NBTI binding at adenosine uptake sites in rat striatal membranes; conditions: read-out: Ki (NBTI); 0.3 nM [3H]NBTI, 30 min at 23° C., pH 7.4
T1 sequence (O54698 1-457): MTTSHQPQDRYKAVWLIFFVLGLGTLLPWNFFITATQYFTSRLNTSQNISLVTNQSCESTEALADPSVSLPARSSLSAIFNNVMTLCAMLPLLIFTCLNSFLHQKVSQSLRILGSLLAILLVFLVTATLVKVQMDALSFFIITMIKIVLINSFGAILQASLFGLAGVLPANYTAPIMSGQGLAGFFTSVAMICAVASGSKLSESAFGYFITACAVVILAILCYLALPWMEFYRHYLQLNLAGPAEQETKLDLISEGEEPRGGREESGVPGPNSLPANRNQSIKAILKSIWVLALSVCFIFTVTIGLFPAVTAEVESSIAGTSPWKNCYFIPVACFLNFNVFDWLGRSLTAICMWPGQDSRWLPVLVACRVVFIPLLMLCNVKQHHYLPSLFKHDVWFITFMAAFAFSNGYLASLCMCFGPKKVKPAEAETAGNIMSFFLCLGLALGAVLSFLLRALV

[13] = molecular target: T1, adenosine uptake sites in rat brain membranes; set-up: Rat striatal membranes, prepared as above; from tissue; host or cells: rat striatal membranes; conditions: read-out: Kd value used for [3H]NBTI Ki calculation; cited from earlier work
rat brain A1 receptors = molecular target: T2, rat brain A1 receptors (Rattus norvegicus, UniProt P25099); assay: Displacement of [125I]APNEA binding in rat brain membranes; conditions: read-out: IC50 vs. displacement of specific binding of [125I]APNEA, Ki (A1) column of Table 2, footnote f
T2 construct: in rat brain membranes; from tissue; host or cells: rat brain membranes
T2 sequence (P25099 1-326): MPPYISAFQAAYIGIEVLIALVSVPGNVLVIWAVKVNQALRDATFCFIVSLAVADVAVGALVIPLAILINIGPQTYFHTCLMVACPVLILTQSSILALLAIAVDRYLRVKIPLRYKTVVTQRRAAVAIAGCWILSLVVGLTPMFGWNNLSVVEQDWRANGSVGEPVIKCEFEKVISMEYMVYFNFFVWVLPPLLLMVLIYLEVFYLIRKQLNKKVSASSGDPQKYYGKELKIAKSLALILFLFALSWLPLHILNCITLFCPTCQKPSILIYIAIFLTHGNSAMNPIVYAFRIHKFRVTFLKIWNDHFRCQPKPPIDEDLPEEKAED

[14] = acute, 15 min prior to 10 min ischemia
[15] = chronic 10 days, 10 min ischemia
[16] = acute IB-MECA 10 μg/kg + NMDA 60 mg/kg, NS
[17] = acute IB-MECA 50 μg/kg + NMDA 60 mg/kg, NS
[18] = acute IB-MECA 100 μg/kg + NMDA 60 mg/kg
[19] = acute IB-MECA 100 μg/kg + NMDA 60 mg/kg, P<0.05
[20] = chronic IB-MECA 100 μg/kg + NMDA 60 mg/kg, P<0.05
[21] = acute IB-MECA 100 μg/kg + PMT 75 mg/kg
[22] = acute IB-MECA 100 μg/kg + PMT 75 mg/kg, P<0.05
[23] = chronic IB-MECA 100 μg/kg + PMT 75 mg/kg
[24] = chronic IB-MECA 100 μg/kg + PMT 75 mg/kg, P<0.05

In the case of `CNC(=O)[C@H]1O[C@@H](n2cnc3c(NCc4cccc(I)c4)ncnc32)[C@H](O)[C@@H]1O` [Compound 42, N^6-(3-iodobenzyl)adenosine-5'-N-methyluronamide], the “reduction in locomotor activity at chosen dose” value ([1]; APEC 16 μg/kg, 3-IB-MECA 100 μg/kg i.p.) is reported as “ca. 50%”, the minimal effective dose ([1]; Mus musculus, ip, read-out: threshold dose for locomotor depression) is reported as 0.01 mg/kg and the “dose of maximal locomotor depression” value ([1]; i.p.) is reported as “about 0.1 mg/kg”. For the same compound, the “scratching behavior (in words)” value ([1]; i.p.) was “rapid scratching behavior”, the “locomotor measures (in words)” value ([1]; i.p., listed as 3-IB-MECA) was “Vertical activity, stereotype counts, and rotational movement were depressed in a dose-dependent manner; also recorded: average distance per move and average speed were not changed significantly” and the “plateau of locomotor depression below control level” value ([1]; total distance traveled, higher doses) was “ca. 60%”. For the same compound, the “postischemic effect (in words)” value ([2]; acute (15 min) or chronic (10 days), 100 μg/kg, listed as IB-MECA) was “impairment of postischemic cortical blood flow rate, increased mortality rate, and extensive neuronal destruction in the hippocampus; also recorded: improved post-ischemic blood reflow, increased survival”, the surviving hippocampal neurons ([2]; acute (15 min), 10 min ischemia, 100 μg/kg) was “about 30%” and the “survival for 7 days” value ([2]; acute, 100 μg/kg i.p. 15 min prior to 10 min ischemia) was “Ten percent”. The “animals with irreversible coma” value ([2]; acute, 10 min ischemia) was 40%, the animals with seizures ([2]; acute, 10 min ischemia) was 60% and the “mortality within 12 hr post-ischemia” value [2, 14] was 90%. The “time to full recovery of post-ischemic blood flow” value [2, 14] was “over 3.5 hr”, the end-point mortality ([2]; acute, repeated experiment, FIG. 6, p<0.01) was 90% and the “neurological side effects without ischemia (in words)” value ([2]; acutely and chronically treated) was “No neurological side effects were observed”. For the same compound, the “animals with mild hyperactivity” value [2, 15] was 40%, the “survival for 7 days (in words)” value [2, 15] was “All those gerbils” and the “time to full recovery of post-ischemic blood flow” value [2, 15] was “about 90 min”. The “survival for 7 days” value ([2]; chronic 10 days, 20 min ischemia) was 90%, the surviving hippocampal neurons ([2]; chronic (10 days), 10 min ischemia, 100 μg/kg) was greater than 80% and the survival ([2]; chronic, repeated experiment, FIG. 6, p<0.01) was 90%. For the same compound, the “duration of hypotensive effect” value ([3]; 0.1 mg/kg) was 90 min, the “blood flow and respiratory rates (in words)” value ([3]; 0.1 mg/kg i.p.) was “not significant” and the “blood pressure (in words)” value ([3]; 0.1 mg/kg i.p.) was “lowering of the blood pressure”. For the same compound, the “heart rate (in words)” value ([3]; 0.1 mg/kg i.p.) was “little effect on heart rate”, the “drop in body temperature” value ([3]; 0.1 mg/kg i.p., after about 30 min post-injection) was “approximately 0.5 °C” and the “onset of hypotensive effect” value ([3]; 0.1 mg/kg, post-injection) was no more than 2 min. The “injection-induced anxiety or stress responses (in words)” value [4] was “almost no injection-induced anxiety or stress behavioral responses”, the “incidence of seizures or degree of neurological impairment (in words)” value ([5]; acute IB-MECA 10 μg/kg + NMDA 60 mg/kg) was “no effect on either the incidence of seizures, or the degree of neurological impairment” and the “% Convulsing” value [5, 16] was 50%. The “% Mortality at 24 h” value [5, 16] was 50%, the “Impairment (scale 1-6)” value [5, 16] was 2.7 + 0.6 and the “Ave. Latency to Seizures” value ([5]; acute IB-MECA 10 μg/kg + NMDA 60 mg/kg, P<0.05) was 581 + 107 sec. For the same compound, the “% Mortality at 24 h” value [5, 17] was 27%, the “Impairment (scale 1-6)” value [5, 17] was 2.0 + 0.5 and the “% Convulsing” value ([5]; acute IB-MECA 50 μg/kg + NMDA 60 mg/kg, P<0.05) was 10%. The “Ave. Latency to Seizures” value ([5]; acute IB-MECA 50 μg/kg + NMDA 60 mg/kg, only one animal) was 12 s, the “% Convulsing” value [5, 18] was 0% and the “clinically manifested seizures (in words)” value [5, 18] was “completely absent”. For the same compound, the “duration of lethargic behaviour” value [5, 18] was 45 to 60 min, the “% Mortality at 24 h” value [5, 19] was 10% and the “Impairment (scale 1-6)” value [5, 19] was 1.4 + 0.4. The “animals with tonic seizures” value ([5]; chronic IB-MECA 100 μg/kg + NMDA 60 mg/kg) was 20%, the “% Convulsing” value [5, 20] was 30% and the “Ave. Latency to Seizures” value [5, 20] was 689 + 108 sec. The “Impairment (scale 1-6)” value [5, 20] was 1.8 + 0.4, the “onset of seizures and overall mortality after PMT (in words)” value ([6]; acute IB-MECA) was “significantly reduced” and the Impairment [6, 21] was 4.1 + 0.5. The “Mortality 0.4-5 h” value [6, 21] was 0%, the “Mortality <15 min” value [6, 21] was 40% and the “Mortality >5 h” value [6, 21] was 10%. For the same compound, the “Mortality Overall” value [6, 22] was 50%, the “Onset of convulsive behavior” value [6, 22] was 112 s and the “Mortality 0.4-5 h” value [6, 23] was 10%. For the same compound, the “Mortality <15 min” value [6, 23] was 40%, the “Mortality >5 h” value [6, 23] was 0% and the “Onset of convulsive behavior” value [6, 23] was 120 s. The Impairment [6, 24] was 3.3 + 0.5, the “Mortality Overall” value [6, 24] was 50% and the “onset of seizures or neurological impairment after PMT (in words)” value ([6]; chronic IB-MECA + PMT 75 mg/kg) was “no significant effect on either the onset of seizures or neurological impairment”. The “electroshock threshold voltage (in words)” value ([7]; acute IB-MECA) was “insignificant increase of threshold voltage”, the “% Mortality at 24 h” value ([7]; acute IB-MECA 100 μg/kg + E.S.) was 70% and the Threshold voltage ([7]; acute IB-MECA 100 μg/kg + E.S.) was 106 + 10. The “electroshock threshold voltage / postictal mortality (in words)” value ([7]; chronic IB-MECA) was “no significant changes in threshold voltage; also recorded: postictal mortality was significantly reduced”, the Threshold voltage ([7]; chronic IB-MECA 100 μg/kg + E.S.) was 118 + 13 and the “% Mortality at 24 h” value ([7]; chronic IB-MECA 100 μg/kg + E.S., p<0.05) was 30%. The “seizing activity (in words)” value ([8]; acute) was “worsen the seizing activity”, the “seizing activity during swim task (in words)” value ([8]; chronic, 100 μg/kg i.p. daily for 6 wks) was “entirely eliminated seizing activity” and the “locomotor behavior in open field (in words)” value [9] was “did not show any significant differences in locomotor behavior”. The “average time to target” value ([9]; 100 μg/kg daily for 2 months, p<0.04 vs controls 40 sec) was 30 s, the “basal or systemic blood pressure after administration” value ([10]; from about 70 mm Hg) was “about 90 mm Hg” and the “increase in basal or systemic blood pressure” value ([10]; in vivo) was 10-30%. For the same compound, the “stimulation of phospholipase C and inositol 1,4,5-triphosphate production (in words)” value (phospholipase C) was “stimulation of phospholipase C and an enhanced production of inositol 1,4,5-triphosphate”, the “rectal temperature (in words)” value [11] was “no significant temperature differences” and the Ki [12] was 28200 nM.
For `O=[N+]([O-])c1ccc(CSc2ncnc3c2ncn3[C@@H]2O[C@H](CO)[C@@H](O)[C@H]2O)cc1` [[^3 H]NBTI], the Kd [13] is listed as 0.15 nM.
`Nc1ccc(CCNc2ncnc3c2ncn3[C@@H]2O[C@H](CO)[C@@H](O)[C@H]2O)cc1I` [[^125 I]APNEA, [^125 I]N^6-2-(4-aminophenyl)ethyladenosine] showed an IC50 (rat brain A1 receptors) of 2.1 nM.
